Patent publication US7834005B2, “Pyrrolobenzodiazepine derivatives, compositions comprising the same and methods related thereto” (The United States of America as represented by the …, priority 2003, dated 2010)
Several values for one entry are separate records, joined by “and”; a condition that tells them apart may be missing. Identical values can stand only once.

Key:
SF-295 (glioma) = test: in vivo efficacy, SF-295 (glioma) subcutaneous tumor model; design: species or system athymic mice; details: for BW Loss / Growth Delay % [(T − C)/C] / Optimal % T/C / value in parentheses in Growth Delay column / tumor free (tf): SF-295, Early-SC, intravenous
Procedure: (§1) NSC 694501 was evaluated for in vivo efficacy in athymic mice bearing 8 subcutaneous tumor models: LOX and UACC-62 (melanoma), OVCAR-3 and OVCAR-5 (ovarian ca), MDA-MB-435 (breastca), SF-295 and C-6 (glioma), and LS-174T (colonca). The models were selected on the basis of hollow fiber assays and in vitro time course assays.
(§2) A qDx5 schedule conferred better efficacy than a q4Dx3 schedule in each of the 4 models tested on two schedules. NSC 694501 was active over a wide dosage range in athymic mice using compound prepared fresh just prior to injection in 1% EtOH vehicle: On a qDx5 schedule, the maximum tolerated dose was approximately 120 μg/kg/dose and the minimum effective dose in one of the most sensitive models (SF-295) was 16 μg/kg/dose.

[1] = as above; design: species or system athymic mice; details: athymic, mouse, in vivo, SF-295, Early-SC
Procedure: as §1, §2

[2] = in vivo efficacy, OVCAR-5 (ovarian ca) subcutaneous tumor model; design: species or system athymic mice; details: athymic, mouse, in vivo, OVCAR-5, Early-SC
Procedure: as §1, §2

OVCAR-5 (ovarian ca) = test: as above; design: species or system athymic mice; details: OVCAR-5, Early-SC, intravenous
Procedure: as §1, §2

C-6 (rat glioma) = test: in vivo efficacy, C-6 (rat glioma) in nude rats; details: i.v.; for BW Loss / Growth Delay % [(T − C)/C] / Optimal % T/C: C-6, Early-SC, nude rats
[3] = in vivo efficacy, UACC-62 (melanoma) subcutaneous tumor model; design: species or system athymic mice; details: athymic, mouse, in vivo, UACC-62, Early-SC
Procedure: as §1, §2

UACC-62 (melanoma) = test: as above; design: species or system athymic mice; details: UACC-62, Early-SC, intravenous
Procedure: as §1, §2

[4] = in vivo efficacy, OVCAR-3 (ovarian ca) subcutaneous tumor model; design: species or system athymic mice; details: athymic, mouse, in vivo, OVCAR-3, Early-SC
Procedure: as §1, §2

OVCAR-3 (ovarian ca) = test: as above; design: species or system athymic mice; details: OVCAR-3, Early-SC, intravenous
Procedure: as §1, §2

[5] = tested on: LS-174 (human colon cancer); test: in vivo efficacy, LS-174 (human colon cancer) in nude rats; details: i.v.; for BW Loss / Growth Delay % [(T − C)/C] / Optimal % T/C: LS-174, Early-SC, nude rats
[6] = in vivo efficacy, MDA-MB-435 (breastca) subcutaneous tumor model; design: species or system athymic mice; details: athymic, mouse, in vivo; MDA-MB-435, Early-SC, Q4D X3, intravenous
Procedure: as §1, §2

MDA-MB-435 (breastca) = test: as above; design: species or system athymic mice; details: MDA-MB-435, Early-SC, Q4D X3, 0.45 mg/kg/dose, intravenous
Procedure: as §1, §2

[7] = in vivo efficacy, summary over 8 subcutaneous tumor models; design: species or system athymic mice; details: mouse, in vivo, intravenous; athymic mice, qDx5 schedule, prepared fresh in 1% EtOH vehicle; read-out: maximum tolerated dose
Procedure: as §1, §2

[8] = tested on: 8 subcutaneous tumor models; test: as above; design: species or system athymic mice
Procedure: as §1, §2

Structure (SMILES): C=C1C[C@H]2C=Nc3cc(OCCCOc4cc5c(cc4OC)C(=O)N4CC(=C)C[C@H]4C=N5)c(OC)cc3C(=O)N2C1 [NSC 694501]
- BW Loss (SF-295 (glioma); Q4D X3, 0.11 mg/kg/dose): 0.1%
- Growth Delay % [(T − C)/C] (SF-295 (glioma); Q4D X3, 0.11 mg/kg/dose): 60%
- Optimal % T/C (SF-295 (glioma); Q4D X3, 0.11 mg/kg/dose): 10%
- value in parentheses in Growth Delay column (SF-295 (glioma); Q4D X3, 0.11 mg/kg/dose): 0.0 L
- BW Loss (SF-295 (glioma); Q4D X3, 0.16 mg/kg/dose): 4.3%
- Growth Delay % [(T − C)/C] (SF-295 (glioma); Q4D X3, 0.16 mg/kg/dose): 103%
- Optimal % T/C (SF-295 (glioma); Q4D X3, 0.16 mg/kg/dose): 3%
- value in parentheses in Growth Delay column (SF-295 (glioma); Q4D X3, 0.16 mg/kg/dose): 0.9 L
- BW Loss (SF-295 (glioma); Q4D X3, 0.24 mg/kg/dose): 10.2%
- Growth Delay % [(T − C)/C] (SF-295 (glioma); Q4D X3, 0.24 mg/kg/dose): 227%
- Optimal % T/C (SF-295 (glioma); Q4D X3, 0.24 mg/kg/dose): 1 (1 tf) %
- tumor free (tf) (SF-295 (glioma); Q4D X3, 0.24 mg/kg/dose): 1 (1 tf)
- value in parentheses in Growth Delay column (SF-295 (glioma); Q4D X3, 0.24 mg/kg/dose): 3.2 L
- BW Loss (SF-295 (glioma); Q4D X3, <0.30 mg/kg/dose): 24.0%
- tumor free (tf) (SF-295 (glioma); Q4D X3, <0.30 mg/kg/dose, T/C unevaluable): ue (2 tf)
- BW Loss (SF-295 (glioma); QD X5, 0.016 mg/kg/dose): 0.0%
- Growth Delay % [(T − C)/C] (SF-295 (glioma); QD X5, 0.016 mg/kg/dose): 31%
- Optimal % T/C (SF-295 (glioma); QD X5, 0.016 mg/kg/dose): 33%
- BW Loss (SF-295 (glioma); QD X5, 0.024 mg/kg/dose): 3.6%
- Growth Delay % [(T − C)/C] (SF-295 (glioma); QD X5, 0.024 mg/kg/dose): 61%
- Optimal % T/C (SF-295 (glioma); QD X5, 0.024 mg/kg/dose): 12%
- BW Loss (SF-295 (glioma); QD X5, 0.036 mg/kg/dose): 3.5%
- Growth Delay % [(T − C)/C] (SF-295 (glioma); QD X5, 0.036 mg/kg/dose): 69%
- Optimal % T/C (SF-295 (glioma); QD X5, 0.036 mg/kg/dose): 14%
- BW Loss (SF-295 (glioma); QD X5, 0.054 mg/kg/dose): 4.7% and 2.8%
- Growth Delay % [(T − C)/C] (SF-295 (glioma); QD X5, 0.054 mg/kg/dose): 165% and 206%
- Optimal % T/C (SF-295 (glioma); QD X5, 0.054 mg/kg/dose): 2% and 0%
- tumor free (tf) (SF-295 (glioma); QD X5, 0.054 mg/kg/dose): 1 tf
- value in parentheses in Growth Delay column (SF-295 (glioma); QD X5, 0.054 mg/kg/dose): 2.6 L and 3.0 L
- BW Loss (SF-295 (glioma); QD X5, 0.08 mg/kg/dose): 0.0%
- Growth Delay % [(T − C)/C] (SF-295 (glioma); QD X5, 0.08 mg/kg/dose): 131%
- Optimal % T/C (SF-295 (glioma); QD X5, 0.08 mg/kg/dose): 3%
- value in parentheses in Growth Delay column (SF-295 (glioma); QD X5, 0.08 mg/kg/dose): 2.0 L
- BW Loss (SF-295 (glioma); QD X5, 0.12 mg/kg/dose): 7.5% and 5.3%
- Growth Delay % [(T − C)/C] (SF-295 (glioma); QD X5, 0.12 mg/kg/dose): 241% and 196%
- Optimal % T/C (SF-295 (glioma); QD X5, 0.12 mg/kg/dose): 4 (4 tf) % and 2 (2 tf) %
- tumor free (tf) (SF-295 (glioma); QD X5, 0.12 mg/kg/dose): 4 (4 tf) and 2 (2 tf)
- value in parentheses in Growth Delay column (SF-295 (glioma); QD X5, 0.12 mg/kg/dose): 3.1 L and 3.2 L
- minimum effective dose (SF-295 (glioma); SF-295, qDx5 schedule, athymic mice): 16 μg/kg/dose
- MTD at 9 days ([1]; Q4D X3, intravenous): < 0.3 mg/kg
- MTD at 5 days ([1]; QD X5, intravenous): 0.12 mg/kg
- MTD at 9 days ([2]; Q4D X3, intravenous): 0.45 mg/kg
- MTD at 5 days ([2]; QD X5, intravenous): 0.081 mg/kg
- BW Loss (OVCAR-5 (ovarian ca); Q4D X3, 0.45 mg/kg/dose): 21.2%
- Growth Delay % [(T − C)/C] (OVCAR-5 (ovarian ca); Q4D X3, 0.45 mg/kg/dose): 32%
- Optimal % T/C (OVCAR-5 (ovarian ca); Q4D X3, 0.45 mg/kg/dose): 38%
- BW Loss (OVCAR-5 (ovarian ca); QD X5, 0.081 mg/kg/dose): 2.6%
- Growth Delay % [(T − C)/C] (OVCAR-5 (ovarian ca); QD X5, 0.081 mg/kg/dose): 102%
- Optimal % T/C (OVCAR-5 (ovarian ca); QD X5, 0.081 mg/kg/dose): 13%
- BW Loss (C-6 (rat glioma); QD X5, 0.018 mg/kg): 0.0%
- Growth Delay % [(T − C)/C] (C-6 (rat glioma); QD X5, 0.018 mg/kg): 13%
- Optimal % T/C (C-6 (rat glioma); QD X5, 0.018 mg/kg): 56%
- BW Loss (C-6 (rat glioma); QD X5, 0.027 mg/kg): 6.3%
- Growth Delay % [(T − C)/C] (C-6 (rat glioma); QD X5, 0.027 mg/kg): 20%
- Optimal % T/C (C-6 (rat glioma); QD X5, 0.027 mg/kg): 47%
- BW Loss (C-6 (rat glioma); QD X5, 0.040 mg/kg): 0.8%
- Growth Delay % [(T − C)/C] (C-6 (rat glioma); QD X5, 0.040 mg/kg): 49%
- Optimal % T/C (C-6 (rat glioma); QD X5, 0.040 mg/kg): 24%
- tolerability and efficacy (C-6 (rat glioma); nude rats bearing C-6, 27 and 40 μg/kg/dose, qDx5): well tolerated and efficacious
- MTD at 9 days ([3]; Q4D X3, intravenous): 0.45 mg/kg
- MTD at 5 days ([3]; QD X5, intravenous): 0.054 mg/kg
- BW Loss (UACC-62 (melanoma); Q4D X3, .45 mg/kg/dose): 20.9%
- Growth Delay % [(T − C)/C] (UACC-62 (melanoma); Q4D X3, .45 mg/kg/dose): 43%
- Optimal % T/C (UACC-62 (melanoma); Q4D X3, .45 mg/kg/dose): 28%
- BW Loss (UACC-62 (melanoma); QD X5, 0.054 mg/kg/dose): 20.2%
- Growth Delay % [(T − C)/C] (UACC-62 (melanoma); QD X5, 0.054 mg/kg/dose): 150%
- Optimal % T/C (UACC-62 (melanoma); QD X5, 0.054 mg/kg/dose): 26%
- value in parentheses in Growth Delay column (UACC-62 (melanoma); QD X5, 0.054 mg/kg/dose): 0.9 L
- MTD at 9 days ([4]; Q4D X3, intravenous): 0.45 mg/kg
- MTD at 5 days ([4]; QD X5, intravenous): 0.27 mg/kg
- BW Loss (OVCAR-3 (ovarian ca); Q4D X3, 0.45 mg/kg/dose): 6.6% and 13.9%
- Growth Delay % [(T − C)/C] (OVCAR-3 (ovarian ca); Q4D X3, 0.45 mg/kg/dose): 73% and 55%
- Optimal % T/C (OVCAR-3 (ovarian ca); Q4D X3, 0.45 mg/kg/dose): 20% and 10%
- BW Loss (OVCAR-3 (ovarian ca); QD X5, .27 mg/kg/dose): 7.9%
- Growth Delay % [(T − C)/C] (OVCAR-3 (ovarian ca); QD X5, .27 mg/kg/dose): 114%
- Optimal % T/C (OVCAR-3 (ovarian ca); QD X5, .27 mg/kg/dose): 9%
- value in parentheses in Growth Delay column (OVCAR-3 (ovarian ca); QD X5, .27 mg/kg/dose): 1.9 L
- BW Loss ([5]; QD X5, 0.018 mg/kg): 0.0%
- Growth Delay % [(T − C)/C] ([5]; QD X5, 0.018 mg/kg): 43%
- Optimal % T/C ([5]; QD X5, 0.018 mg/kg): 41%
- BW Loss ([5]; QD X5, 0.027 mg/kg): 2.2%
- Growth Delay % [(T − C)/C] ([5]; QD X5, 0.027 mg/kg): 93%
- Optimal % T/C ([5]; QD X5, 0.027 mg/kg): 21%
- BW Loss ([5]; QD X5, 0.040 mg/kg): 1.4%
- Growth Delay % [(T − C)/C] ([5]; QD X5, 0.040 mg/kg): 83%
- Optimal % T/C ([5]; QD X5, 0.040 mg/kg): 17%
- tolerability and efficacy ([5]; nude rats bearing LS-174, 27 and 40 μg/kg/dose, qDx5): well tolerated and efficacious
- MTD at 9 days [6]: 0.45 mg/kg
- BW Loss (MDA-MB-435 (breastca)): 19.8%
- Growth Delay % [(T − C)/C] (MDA-MB-435 (breastca)): 41%
- Optimal % T/C (MDA-MB-435 (breastca)): 3%
- tumor free (tf) (MDA-MB-435 (breastca)): 1 tf
- MTD at 5 days [7]: ~0.12 mg/kg
- cell kill ([8]; i.v bolus): multi-log cell kill in 4 models
- growth delays ([8]; i.v bolus): significant growth delays in 7 models
- activity in tumor models ([8]; i.v bolus drug delivery): active in each of the 8 tumor models
